In one data set the test system is VERO-E6 cells. Put plainly: Cytotoxicity on VERO-E6 cells (data not shown). Type of data set: cell-based.
The test system of another data set is A549 cells. The experiment in a line: Cytotoxicity on A549 cells (data not shown). It is filed as cell-based.
Data set [1] relates to human foreskin fibroblasts HFF-BJ (ATCC CRL-2522 cells). Put plainly: MTT cytotoxicity / cell viability assay. It is filed as cell-based. Conditions: 0.1 to 50 μM, 72 h. The source says: Cell viability as visualized by fold change of formazan-positive cells normalized to the untreated control and DMSO. Viability reduced below 40% represents the cytotoxic zone, below the dotted line in each plot. The number of biological replicates is indicated.
Human foreskin fibroblasts (HFF), a type of primary fibroblast derived from neonatal foreskin tissue, were chosen for this bioassay due to their distinct advantages in studies involving HCMV. For instance, the HHF cells provide a relevant and effective platform due to their unique susceptibility to HCMV infection, ability to mimic human immune responses, and relevance to clinical scenarios. […] HFF cells were incubated with each compound at concentrations ranging from 0.1 to 50 μM and any possible cytotoxic effect was monitored for 72 h. Tested compounds were dissolved in dimethyl sulfoxide (DMSO). […] The cytotoxic effect (CTE) is represented here as the concentration that causes a reduction of more than 40% in the number of viable cells.
Cells were seeded in a 96-well plate at a density of 1 × 10^4 cells per well for the measurement of cytotoxicity of the compounds (without UVA irradiation). […] Cells after treatment were incubated for […]. Untreated cells were considered negative control, and DMSO-treated cells (at appropriate concentration) were considered vehicle control. The classical MTT assay (3-(4,5-dimethyl thiazolyl-2)-2,5-diphenyltetrazolium bromide) ([68]) was used to measure cellular metabolic activity as an indicator of cell viability, proliferation, and cytotoxicity. Briefly, 0.5 mg/ml MTT solution was dispensed in each well of the 96-well plate and incubated for 4 h. Afterward, the MTT solution was removed and 200 μl of 100% DMSO was added to each well and the plate was placed on a microplate shaker for 5 min to dissolve the formazan granules. The absorbance was measured at 550 nm using a spectrophotometer. DMSO and MTT were purchased from Thermo Fisher Scientific. The darker the solution, the greater the number of viable, metabolically active cells. All experimental compounds were measured using at least 2 to 3 replicates for each and the averaged values from three independent experiments (n = 3) are presented. Cell viability was visualized by fold change of formazan-positive cells normalized to the untreated control and DMSO. Viability reduced below 40% represents the cytotoxic zone. All evaluations were performed using GraphPad Prism 9.5.0 (GraphPad Software, LLC), if other software was not explicitly mentioned.

Data set [2] concerns the target T1, HCMV UL141 (Human cytomegalovirus, UniProt Q6RJQ3).
T1 construct: we expressed and purified the full-length recombinant UL141 (amino acids 30–300); made in house
The experiment in a line: biochemical. Type of data set: binding. The settings on record: for Rmax / koff / kon: UL141 immobilized, substance as analyte. How it is done:
(§1) To prepare HCMV UL141 for binding studies, biotinylation was performed using the BiotinTag Micro Biotinylation Kit (Sigma-Aldrich). Purified UL141 protein (50 μg in 50 μl) was mixed with 50 μl of BiotinTag reaction buffer provided in the kit. Sulfo-NHS-Biotin reagent was freshly prepared by dissolving the vial contents in 1 ml of sterile water. A calculated volume of the biotin reagent was added to achieve a 20:1 M excess of biotin to protein. The reaction mixture was incubated for 30 min at room temperature with gentle mixing to ensure efficient labeling. Following incubation, unreacted biotin was removed using the desalting column included in the kit. The biotinylated UL141 protein was eluted in 50 mM Hepes, pH 7.5, 150 mM NaCl. Biotin incorporation was verified using a colorimetric biotin quantification assay (e.g., HABA assay). The biotinylated protein was then quantified spectrophotometrically using a NanoDrop instrument and concentrated to the desired level for Biacore or ELISA binding studies. The biotinylated protein was stored at 4 °C for short-term use or −80 °C for long-term storage to maintain stability.
(§2) The sensor surface of an SA chip (Cytiva) was preconditioned with HBS-EP buffer (10 mM Hepes, 150 mM NaCl, 3 mM EDTA, 0.005% Tween-20) to stabilize the baseline and remove any loosely bound streptavidin. Before use, the buffer was filtered through a 0.2 μm polystyrene filter and degassed under vacuum for 10 min to eliminate air bubbles. Biotinylated HCMV UL141 was immobilized on the SA chip, maintaining biotinylation at 0.5 to 1.5 mol per mole of protein. Excess biotin was removed via gel filtration. UL141 was injected at 30 μl/min, achieving maximum immobilization (4000–6000 RU), followed by washing with running buffer. Residual unbound proteins were optionally removed with a 2 M NaCl pulse. To ensure optimal SPR signal detection, which depends on the analyte mass bound to the ligand, relatively high amounts of ligand were immobilized on the sensor chip to achieve a significant response signal upon binding of the small compound. […] Regeneration of the chip surface, when necessary, was performed using 5 mM NaOH. Control injections of zero concentrations and duplicate injections of selected concentrations were included to validate surface regeneration. […]

The target of the next data set is UL141. The settings on record: cited from earlier work; for Kd: UL141 (ectodomain) in solution.
The target in data set [3] is T2, HCMV UL141 (Human cytomegalovirus, UniProt Q6RJQ3).
T2 construct: we expressed and purified the full-length recombinant UL141 (amino acids 30–300); made in house
T2 sequence (Q6RJQ3 whole entry, looked up): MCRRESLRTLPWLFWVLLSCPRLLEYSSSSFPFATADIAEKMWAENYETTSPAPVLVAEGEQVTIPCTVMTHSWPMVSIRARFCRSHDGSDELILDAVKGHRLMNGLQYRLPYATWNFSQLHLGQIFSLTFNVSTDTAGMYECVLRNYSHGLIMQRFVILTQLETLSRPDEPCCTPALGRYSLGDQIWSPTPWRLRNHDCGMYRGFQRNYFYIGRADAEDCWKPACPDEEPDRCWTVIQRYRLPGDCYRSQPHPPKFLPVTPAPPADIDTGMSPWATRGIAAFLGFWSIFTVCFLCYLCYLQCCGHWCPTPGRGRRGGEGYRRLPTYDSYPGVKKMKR
Put plainly: biochemical. It is filed as binding. How it is done: as §1, §2

In data set [4] the target is TRAIL-R2-Fc (Homo sapiens) (UniProt O14763). Put plainly: SPR. The settings on record: cited from earlier work.
For a further data set, the target named is TRAIL-R2 (Homo sapiens) (UniProt O14763). The experiment in a line: SPR. The settings on record: cited from earlier work.
The mark [5] stands for this setting: UL141 immobilized (ligand), substance in solution (analyte), 1:1 Langmuir model, 25 °C.
[6] abbreviates: 1:1 Langmuir model, listed as cmp 15.
Setting [7] is: 1:1 Langmuir model, listed as cmp 20.
Setting [8] is: TRAIL-R2-Fc immobilized, ref ([19]).
The mark [9] stands for this setting: TRAIL-R2-Fc immobilized, UL141 in solution, ref ([19]).
Where [10] appears, read: UL141-Fc immobilized, TRAIL-R2 in solution, ref ([17]).

The values below come from publication PMC12140054, “Small glycomimetic antagonists of the cytomegalovirus glycoprotein UL141 prevent binding to TRAIL death receptor” (The Journal of Biological Chemistry, 2025).

Read-outs that look alike come from different tables or passages of the source. Some results are limits rather than exact numbers.

For `CCCCCCCCCCCCCCO[C@@H]1O[C@H](CO)[C@@H](O)[C@H](O)[C@H]1O` [Compound 1], the “concentration at which cytotoxicity with apoptotic properties begins” value (“concentration at which cytotoxicity” for short) in the data set with VERO-E6 cells and in the data set on A549 cells was ≥ 5000 ng/mL each time.

Consider `CCCCCCCCCCCCCCO[C@@H]1O[C@H](CO)[C@H](O)[C@H](O)[C@H]1O` [Compound 3], for which the “concentration at which cytotoxicity” value in the data set on VERO-E6 cells and in the data set on A549 cells was ≥ 5000 ng/mL in each case.

For `CCCCCCCCCCCCCCO[C@H]1O[C@H](CO)[C@@H](O)[C@H](O)[C@@H]1O` [Compound 5], in data set [1], the “cytotoxicity (in words)” value is “unfavorable level of cytotoxicity”. The “concentration at which cytotoxicity” value in the data set on VERO-E6 cells and in the data set on A549 cells was ≥ 5000 ng/mL throughout.

Consider `CCCCCCCCCCCCN1C[C@H](O)[C@H](O)[C@@H]1CO` [Compound 9], for which the “cytotoxicity (in words)” value in data set [1] is on record as “unfavorable level of cytotoxicity”. Further, the “concentration at which cytotoxicity” value in the data set on VERO-E6 cells and in the data set with A549 cells was ≥ 5000 ng/mL each time.

As a reminder, the Kd is the equilibrium constant for the complex coming apart. As a reminder, the koff is a measure of how fast the partners let go of each other. A word on the kon: it is the second-order rate constant of association. `C[C@H](O)[C@H]1[C@@H](O)[C@@H](O)CN1Cc1ccc(I)cc1` [Compound 14, (2S,3R,4S)-2-((S)-1-hydroxyethyl)-1-(4-iodobenzyl)pyrrolidine-3,4-diol]: the “cytotoxicity (in words)” value in data set [1] is on record as “no cytotoxicity was detected”. The equilibrium dissociation constant (Kd) on HCMV UL141 [2] (setting [5]) was 24 µM; on HCMV UL141 [2] (binding to UL141, SPR), 24 µM. This compound displayed an Rmax on HCMV UL141 [2] of 24. The compound further returned a koff on HCMV UL141 [2] (1:1 Langmuir model) of 0.153 s⁻¹. Besides, the kon on HCMV UL141 [2] (1:1 Langmuir model) is 6370 M⁻¹ s⁻¹; on HCMV UL141 [2] (1:1 Langmuir model, listed as cmp 14) it was “(0.63 ± 0.002) × 10^4 M^−1s^−1”.

In the case of `CC(O)C1C(O)C(O)CN1Cc1ccccc1` (stereo not shown) [Compound 15], the “cytotoxicity (in words)” value in data set [1] is listed as “no cytotoxicity was detected”. For the same compound, the Kd turned out to be 200 µM at HCMV UL141 [2] (setting [5]) and 199 µM at HCMV UL141 [2] (binding to UL141, SPR). At HCMV UL141 [2], this compound came in with an Rmax of 27. Further, the results for the off-rate constant (koff) at HCMV UL141 [2] (1:1 Langmuir model) and on HCMV UL141 [2] (setting [6]) were 0.117 s⁻¹ and “(1.17 ± 0.004) × 10^−1 s^−1”, respectively. Also, the on-rate (kon) at HCMV UL141 [2] (1:1 Langmuir model) is 586 M⁻¹ s⁻¹; at HCMV UL141 [2] (setting [6]), “(0.06 ± 0.002) × 10^4 M^−1s^−1”.

As to `CC(O)C1C(O)C(O)CN1Cc1ccc(I)cc1` (stereo not shown) [Compound 17], the “cytotoxicity (in words)” value in data set [1] was “no cytotoxicity was detected”. At HCMV UL141 [2] (setting [5]), this compound came in with a Kd of 20.3 µM. Also, the Rmax at HCMV UL141 [2] was found to be 20. Moreover, on HCMV UL141 [2] (1:1 Langmuir model), the koff came to 0.0508 s⁻¹ and the association rate constant (kon) worked out at 2500 M⁻¹ s⁻¹. Further, the koff result at HCMV UL141 [2] (1:1 Langmuir model, listed as cmp 17) is “(0.51 ± 0.001) × 10^−1 s^−1”.

Consider `CC1C(O)C(O)CN1Cc1ccc(I)cc1` (stereo not shown) [Compound 20], for which the “cytotoxicity (in words)” value in data set [1] is “no cytotoxicity was detected”. Also, the dissociation constant Kd at HCMV UL141 [2] (setting [5]) came to 29.1 µM; at HCMV UL141 [2] (binding to UL141, SPR), 29 µM. The same compound came in with an Rmax at HCMV UL141 [2] of 21. Besides, the off-rate constant (koff) was 0.0879 s⁻¹ on HCMV UL141 [2] (1:1 Langmuir model) and “(0.88 ± 0.015) × 10^−1 s^−1” on HCMV UL141 [2] (setting [7]). In addition, the kon on HCMV UL141 [2] (1:1 Langmuir model) was 3020 M⁻¹ s⁻¹; on HCMV UL141 [2] (setting [7]) it was “(0.30 ± 0.007) × 10^4 M^−1s^−1”.

As for “TRAIL-R2-Fc: TRAIL-R2 recombinantly prepared as an Fc-fusion protein”, the Kd on UL141 (setting [8]) was 0.00596 µM. In the data set with UL141 (setting [9]), the koff is 7.21e-05 s⁻¹ and the kon was 12100 M⁻¹ s⁻¹.

For “TRAIL-R2: recombinant human TRAIL death receptor 2 ectodomain (amino acids 58–184), positive control in SPR”, the Rmax with HCMV UL141 [3] (UL141 immobilized, substance as analyte) worked out at 872. The dissociation constant (Kd) with HCMV UL141 [3] (full-length UL141 and TRAIL-R2, SPR, read-out: affinity (KD)) was 0.00599 µM; on UL141 (setting [8]), 0.00596 µM. Moreover, the dissociation rate constant (koff) with UL141 (setting [10]) is 0.00564 s⁻¹. Further, the kon in the data set with UL141 (setting [10]) is 264000 M⁻¹ s⁻¹.

With UL141 ECD (from UniProt Q6RJQ3), the Kd in data set [4] is 0.00596 µM.

Take UL141-Fc (from UniProt Q6RJQ3): in the data set with TRAIL-R2 (Homo sapiens), the Kd was 0.0214 µM.
